Laboratory results taken from ChEMBL document CHEMBL1146734, “Estrogen receptor ligands. Part 3: The SAR of dihydrobenzoxathiin SERMs” (Bioorg Med Chem Lett, 2004).

Experiments:
Estrogen receptor [1] = biological target: T1, Estrogen receptor (Homo sapiens, UniProt P03372); experiment: Binding affinity towards human estrogen receptor alpha
T1 sequence (P03372 whole entry): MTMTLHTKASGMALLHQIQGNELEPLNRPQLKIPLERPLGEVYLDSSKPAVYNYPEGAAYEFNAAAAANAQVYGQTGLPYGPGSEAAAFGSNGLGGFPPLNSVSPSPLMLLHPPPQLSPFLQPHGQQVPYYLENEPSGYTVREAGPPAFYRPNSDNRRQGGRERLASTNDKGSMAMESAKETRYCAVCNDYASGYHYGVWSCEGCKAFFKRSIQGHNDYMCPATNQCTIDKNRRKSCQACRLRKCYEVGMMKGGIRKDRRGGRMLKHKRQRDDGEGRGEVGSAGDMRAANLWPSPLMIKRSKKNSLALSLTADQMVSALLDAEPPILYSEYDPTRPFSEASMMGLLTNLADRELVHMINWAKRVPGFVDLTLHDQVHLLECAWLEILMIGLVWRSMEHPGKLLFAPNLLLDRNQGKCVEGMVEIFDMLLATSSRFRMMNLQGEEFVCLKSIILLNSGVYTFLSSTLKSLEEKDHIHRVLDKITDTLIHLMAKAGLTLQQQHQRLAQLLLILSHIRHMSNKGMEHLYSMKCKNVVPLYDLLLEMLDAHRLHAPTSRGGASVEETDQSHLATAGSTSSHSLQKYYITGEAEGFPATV

Estrogen receptor [2] = biological target: T2, Estrogen receptor (Homo sapiens, UniProt Q92731+P03372); experiment: […] inhibition of human ERalpha/ERbeta co-expressed in HEK 293 cells; 127/3316; type: functional; conditions: hek293
Estrogen receptor beta = Estrogen receptor beta (Homo sapiens, UniProt Q92731); experiment: Binding affinity towards human estrogen receptor beta (ERbeta)
Sequence of Estrogen receptor beta (Q92731 whole entry): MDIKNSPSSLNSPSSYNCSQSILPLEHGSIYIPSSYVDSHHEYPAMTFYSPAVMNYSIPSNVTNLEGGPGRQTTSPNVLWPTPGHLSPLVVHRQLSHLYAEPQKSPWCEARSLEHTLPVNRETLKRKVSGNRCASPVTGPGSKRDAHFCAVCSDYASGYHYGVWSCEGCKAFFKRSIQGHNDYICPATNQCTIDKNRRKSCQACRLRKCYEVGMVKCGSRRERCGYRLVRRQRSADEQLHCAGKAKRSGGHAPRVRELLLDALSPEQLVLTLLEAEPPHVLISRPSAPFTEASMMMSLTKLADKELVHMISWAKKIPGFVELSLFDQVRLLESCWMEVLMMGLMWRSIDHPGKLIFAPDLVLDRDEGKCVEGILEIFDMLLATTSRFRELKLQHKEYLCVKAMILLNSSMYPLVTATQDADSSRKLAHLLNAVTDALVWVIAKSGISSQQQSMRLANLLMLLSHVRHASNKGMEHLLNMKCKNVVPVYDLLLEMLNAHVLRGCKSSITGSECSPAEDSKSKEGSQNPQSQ

Estrogen receptor [3] = biological target: T2, Estrogen receptor; experiment: In vivo inhibition of human ERalpha/ERbeta co-expressed in HEK 293 cells; type: functional; conditions: hek293
Estrogen receptor [4] = biological target: T2, Estrogen receptor; experiment: […] inhibition of human ERalpha/ERbeta co-expressed in HEK 293 cells; 21/840; type: functional; conditions: hek293
Estrogen receptor [5] = biological target: T2, Estrogen receptor; experiment: […] inhibition of human ERalpha/ERbeta co-expressed in HEK 293 cells; 137/1375; type: functional; conditions: hek293
Estrogen receptor [6] = biological target: T2, Estrogen receptor; experiment: In vitro inhibition of human ERalpha/ERbeta expressed in HEK 293 cells; 76/322; conditions: hek293

CC(C)[C@H]1Sc2cc(O)ccc2O[C@H]1c1ccc(OCCN2CCCCC2)cc1
IC50 (Estrogen receptor [1]): 7 nM
IC50 (Estrogen receptor [2]): 127 nM
IC50 (Estrogen receptor beta): 105 nM

Oc1ccc(C[C@H]2Sc3cc(O)ccc3O[C@H]2c2ccc(OCCN3CCCCC3)cc2)cc1
IC50 (Estrogen receptor [1]): 2.7 nM
IC50 (Estrogen receptor [3]): 14 nM
IC50 (Estrogen receptor beta): 308 nM

Oc1ccc2c(c1)S[C@H](CC1CCCC1)[C@H](c1ccc(OCCN3CCCCC3)cc1)O2
IC50 (Estrogen receptor [1]): 3 nM
IC50 (Estrogen receptor beta): 34 nM

Oc1ccc2c(c1)S[C@H](c1ccco1)[C@H](c1ccc(OCCN3CCCCC3)cc1)O2
IC50 (Estrogen receptor [1]): 35 nM
IC50 (Estrogen receptor beta): 361 nM

Oc1ccc2c(c1)S[C@H](C1CCCCCC1)[C@H](c1ccc(OCCN3CCCCC3)cc1)O2
IC50 (Estrogen receptor [1]): 7.5 nM
IC50 (Estrogen receptor [4]): 21 nM
IC50 (Estrogen receptor beta): 28 nM

CC(C)(C)[C@H]1Sc2cc(O)ccc2O[C@H]1c1ccc(OCCN2CCCCC2)cc1
IC50 (Estrogen receptor [1]): 11 nM
IC50 (Estrogen receptor [5]): 137 nM
IC50 (Estrogen receptor beta): 43 nM

Oc1ccc2c(c1)S[C@H](C1CCCC1)[C@H](c1ccc(OCCN3CCCCC3)cc1)O2
IC50 (Estrogen receptor [1]): 2.5 nM
IC50 (Estrogen receptor beta): 31 nM

Oc1ccc2c(c1)S[C@H](c1cccnc1)[C@H](c1ccc(OCCN3CCCCC3)cc1)O2
IC50 (Estrogen receptor [1]): 542 nM
IC50 (Estrogen receptor beta): 8250 nM

Oc1ccc2c(c1)S[C@H](c1ccncc1)[C@H](c1ccc(OCCN3CCCCC3)cc1)O2
IC50 (Estrogen receptor [1]): 490 nM
IC50 (Estrogen receptor beta): 8200 nM

Oc1ccc2c(c1)S[C@H](c1cccs1)[C@H](c1ccc(OCCN3CCCCC3)cc1)O2
IC50 (Estrogen receptor [1]): 8.8 nM
IC50 (Estrogen receptor beta): 162 nM

Oc1ccc2c(c1)S[C@H](C1CCCCC1)[C@H](c1ccc(OCCN3CCCCC3)cc1)O2
IC50 (Estrogen receptor [1]): 2.6 nM
IC50 (Estrogen receptor beta): 16 nM

Oc1ccc2c(c1)S[C@H](Cc1ccccc1)[C@H](c1ccc(OCCN3CCCCC3)cc1)O2
IC50 (Estrogen receptor [1]): 7.4 nM
IC50 (Estrogen receptor [3]): 61 nM
IC50 (Estrogen receptor beta): 60 nM

CC(C)C[C@H]1Sc2cc(O)ccc2O[C@H]1c1ccc(OCCN2CCCCC2)cc1
IC50 (Estrogen receptor [6]): 76 nM
IC50 (Estrogen receptor [1]): 3 nM
IC50 (Estrogen receptor beta): 38 nM

Oc1ccc2c(c1)S[C@H](CC1CCCCC1)[C@H](c1ccc(OCCN3CCCCC3)cc1)O2
IC50 (Estrogen receptor [1]): 3.9 nM
IC50 (Estrogen receptor beta): 40 nM
